Laboratory results: ChEMBL document CHEMBL1201862, “PubChem BioAssay data set” (2004)
The source made the active and inactive calls.

Columns and labels:
Interleukin-8 [1] = molecular target: T1, Interleukin-8 (Homo sapiens, UniProt P10145); test: Dose Response confirmation of uHTS small molecule hits for cystic fibrosis induced NFkb Inhibitors in a PAF-induced IL8 counterscreen.; format: functional; settings: read-out: IC50_Mean
Interleukin-8 [2] = molecular target: T1, Interleukin-8; test: Dose Response confirmation of uHTS small molecule hits for cystic fibrosis induced NFkb Inhibitors in a TNFa-induced IL8 counterscreen.; format: functional; settings: read-out: IC50_Mean
Genome polyprotein = Genome polyprotein (dengue virus type 2, UniProt P29990); test: flavivirus cap methylation enzyme inhibition – biochemical, confirmation dose response, primary screen (AID 588689); format: functional
Chain of Genome polyprotein (P29990 2492-3391 limits assumed): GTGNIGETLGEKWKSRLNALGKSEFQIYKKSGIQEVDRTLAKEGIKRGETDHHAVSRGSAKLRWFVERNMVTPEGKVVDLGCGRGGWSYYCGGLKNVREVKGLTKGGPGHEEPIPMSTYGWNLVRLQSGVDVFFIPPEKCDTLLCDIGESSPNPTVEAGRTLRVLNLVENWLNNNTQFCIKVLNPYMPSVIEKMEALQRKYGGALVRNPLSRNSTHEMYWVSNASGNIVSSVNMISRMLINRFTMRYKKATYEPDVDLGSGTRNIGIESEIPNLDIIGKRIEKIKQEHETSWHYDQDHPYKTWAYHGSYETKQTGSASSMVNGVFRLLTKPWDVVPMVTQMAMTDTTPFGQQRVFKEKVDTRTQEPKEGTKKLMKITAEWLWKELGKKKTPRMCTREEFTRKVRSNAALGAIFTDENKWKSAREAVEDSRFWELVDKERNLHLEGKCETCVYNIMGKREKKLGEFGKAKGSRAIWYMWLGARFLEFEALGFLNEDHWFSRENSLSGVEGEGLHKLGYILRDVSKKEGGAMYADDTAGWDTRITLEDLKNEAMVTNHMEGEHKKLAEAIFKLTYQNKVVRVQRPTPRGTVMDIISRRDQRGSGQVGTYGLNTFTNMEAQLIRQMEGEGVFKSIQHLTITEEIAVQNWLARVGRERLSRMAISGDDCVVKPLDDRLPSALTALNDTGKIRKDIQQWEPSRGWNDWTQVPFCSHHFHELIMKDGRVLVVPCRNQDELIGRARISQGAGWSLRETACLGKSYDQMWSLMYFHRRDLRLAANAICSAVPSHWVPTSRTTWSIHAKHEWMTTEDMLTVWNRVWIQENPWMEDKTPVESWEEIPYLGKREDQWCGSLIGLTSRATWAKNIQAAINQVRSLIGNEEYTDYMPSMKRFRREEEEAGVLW

[3] = molecular target: Adenosylmethionine-8-amino-7-oxononanoate aminotransferase (Mycobacterium tuberculosis, UniProt P9WQ81); test: Mycobacterium tuberculosis BioA enzyme inhibitor Measured in Biochemical System Using Plate Reader - 2163-02_Inhibitor_Dose_CherryPick_Activity.; format: functional, Mycobacterium tuberculosis UT205
Chain of Adenosylmethionine-8-amino-7-oxononanoate aminotransferase (P9WQ81 whole entry): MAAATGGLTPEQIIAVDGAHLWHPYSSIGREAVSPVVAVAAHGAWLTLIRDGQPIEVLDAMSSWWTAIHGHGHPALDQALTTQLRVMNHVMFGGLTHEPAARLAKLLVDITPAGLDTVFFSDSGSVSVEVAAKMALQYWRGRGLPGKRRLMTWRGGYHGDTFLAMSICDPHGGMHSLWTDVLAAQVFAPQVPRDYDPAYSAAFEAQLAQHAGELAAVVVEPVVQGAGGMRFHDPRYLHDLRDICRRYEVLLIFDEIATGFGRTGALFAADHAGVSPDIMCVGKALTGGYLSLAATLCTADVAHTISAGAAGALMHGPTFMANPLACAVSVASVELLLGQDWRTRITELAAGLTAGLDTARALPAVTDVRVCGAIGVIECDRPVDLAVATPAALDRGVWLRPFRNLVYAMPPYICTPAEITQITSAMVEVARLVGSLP

[4] = molecular target: T2, Sentrin-specific protease 7 (Homo sapiens, UniProt Q9BQF6); test: inhibition of human SENP7 cleavage activity – biochemical, luminescence, set 2, SAR follow-up (AID 588600); format: functional
T2 sequence (Q9BQF6 whole entry): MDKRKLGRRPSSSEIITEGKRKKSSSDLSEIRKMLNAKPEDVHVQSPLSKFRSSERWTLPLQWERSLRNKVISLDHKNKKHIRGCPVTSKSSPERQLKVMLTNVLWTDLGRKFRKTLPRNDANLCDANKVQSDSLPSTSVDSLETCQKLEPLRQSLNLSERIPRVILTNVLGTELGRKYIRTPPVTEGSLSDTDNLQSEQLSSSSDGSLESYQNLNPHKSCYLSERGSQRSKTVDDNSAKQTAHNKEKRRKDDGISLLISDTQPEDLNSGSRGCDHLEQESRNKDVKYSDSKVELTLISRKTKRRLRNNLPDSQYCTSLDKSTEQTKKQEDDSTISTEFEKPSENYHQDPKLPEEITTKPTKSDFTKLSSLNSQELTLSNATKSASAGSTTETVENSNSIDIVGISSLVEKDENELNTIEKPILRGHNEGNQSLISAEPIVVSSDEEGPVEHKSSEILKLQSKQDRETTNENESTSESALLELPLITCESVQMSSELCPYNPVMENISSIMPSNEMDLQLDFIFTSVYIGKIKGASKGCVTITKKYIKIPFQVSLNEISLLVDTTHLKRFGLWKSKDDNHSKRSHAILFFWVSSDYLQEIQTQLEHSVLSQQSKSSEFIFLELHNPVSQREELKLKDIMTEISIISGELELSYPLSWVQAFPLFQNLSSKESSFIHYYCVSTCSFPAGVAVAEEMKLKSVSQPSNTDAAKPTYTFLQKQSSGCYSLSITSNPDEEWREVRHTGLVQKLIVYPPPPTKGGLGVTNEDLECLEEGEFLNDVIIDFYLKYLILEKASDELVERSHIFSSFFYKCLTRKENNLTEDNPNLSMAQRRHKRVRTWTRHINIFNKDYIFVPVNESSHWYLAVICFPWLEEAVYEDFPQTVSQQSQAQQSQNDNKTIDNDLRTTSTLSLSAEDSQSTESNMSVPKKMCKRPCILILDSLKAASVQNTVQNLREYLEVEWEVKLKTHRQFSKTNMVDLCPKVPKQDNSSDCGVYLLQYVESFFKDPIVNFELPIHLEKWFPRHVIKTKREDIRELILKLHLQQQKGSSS

[5] = molecular target: T3, Sentrin-specific protease 8 (Homo sapiens, UniProt Q96LD8); test: inhibition of sentrin protease 8 – biochemical, luminescence, set 2, SAR follow-up (AID 588601); format: functional
T3 sequence (Q96LD8 whole entry): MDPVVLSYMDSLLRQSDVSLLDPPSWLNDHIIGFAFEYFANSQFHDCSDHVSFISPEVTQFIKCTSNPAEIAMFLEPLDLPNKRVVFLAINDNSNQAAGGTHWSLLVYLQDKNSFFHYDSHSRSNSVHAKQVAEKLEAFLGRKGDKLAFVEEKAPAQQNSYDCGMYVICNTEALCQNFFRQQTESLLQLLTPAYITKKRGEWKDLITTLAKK

Caspase-3 [6] = molecular target: T4, Caspase-3 (Homo sapiens, UniProt P42574); test: inhibition of recombinant caspase-3 activity – biochemical, luminescence, set 2, selectivity assay for SENP protease inhibitor project, SAR follow-up (AID 588599); format: functional
T4 sequence (P42574 whole entry): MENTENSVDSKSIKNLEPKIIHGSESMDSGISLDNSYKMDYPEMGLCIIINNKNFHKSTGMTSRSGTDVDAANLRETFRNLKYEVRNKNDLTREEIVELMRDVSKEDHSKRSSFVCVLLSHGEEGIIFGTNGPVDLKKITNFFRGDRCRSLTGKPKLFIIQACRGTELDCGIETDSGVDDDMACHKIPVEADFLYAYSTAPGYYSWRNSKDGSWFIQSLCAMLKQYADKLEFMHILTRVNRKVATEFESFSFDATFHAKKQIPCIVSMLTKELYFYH

[7] = molecular target: T5, Sentrin-specific protease 6 (Homo sapiens, UniProt Q9GZR1); test: inhibition of human SENP6 catalytic domain – biochemical, luminescence, set 2, SAR follow-up (AID 588598); format: functional
T5 sequence (Q9GZR1 whole entry): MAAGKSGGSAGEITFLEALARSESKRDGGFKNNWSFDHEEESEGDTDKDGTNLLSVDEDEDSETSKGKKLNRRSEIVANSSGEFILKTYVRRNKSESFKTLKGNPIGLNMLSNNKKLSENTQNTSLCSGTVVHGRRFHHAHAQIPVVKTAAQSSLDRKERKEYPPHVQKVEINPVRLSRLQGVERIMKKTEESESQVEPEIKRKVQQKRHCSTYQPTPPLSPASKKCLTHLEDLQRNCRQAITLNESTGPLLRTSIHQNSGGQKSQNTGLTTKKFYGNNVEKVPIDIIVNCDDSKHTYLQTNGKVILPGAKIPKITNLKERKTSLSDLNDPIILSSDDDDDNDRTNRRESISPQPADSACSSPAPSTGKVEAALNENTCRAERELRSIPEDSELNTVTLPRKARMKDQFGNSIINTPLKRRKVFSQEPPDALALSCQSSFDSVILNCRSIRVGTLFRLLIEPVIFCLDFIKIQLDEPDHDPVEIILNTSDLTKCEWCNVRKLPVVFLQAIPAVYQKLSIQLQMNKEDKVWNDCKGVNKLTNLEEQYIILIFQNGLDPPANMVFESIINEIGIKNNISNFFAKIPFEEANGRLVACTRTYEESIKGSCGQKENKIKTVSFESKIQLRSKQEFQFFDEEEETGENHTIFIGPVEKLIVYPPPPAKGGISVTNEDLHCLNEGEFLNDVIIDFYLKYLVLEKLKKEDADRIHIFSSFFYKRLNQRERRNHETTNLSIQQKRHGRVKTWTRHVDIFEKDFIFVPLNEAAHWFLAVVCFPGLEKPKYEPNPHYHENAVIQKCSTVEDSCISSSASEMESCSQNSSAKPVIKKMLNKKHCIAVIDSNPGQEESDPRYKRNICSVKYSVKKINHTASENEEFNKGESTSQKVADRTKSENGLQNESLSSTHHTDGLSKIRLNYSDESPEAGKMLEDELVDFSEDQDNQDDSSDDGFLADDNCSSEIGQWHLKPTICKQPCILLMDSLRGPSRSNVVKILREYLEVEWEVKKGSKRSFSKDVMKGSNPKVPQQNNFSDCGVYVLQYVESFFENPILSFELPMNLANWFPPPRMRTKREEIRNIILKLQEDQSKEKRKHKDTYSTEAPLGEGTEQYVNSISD

Caspase-3 [8] = molecular target: T4, Caspase-3; test: SAR Analysis of small molecule inhibitors of Sentrin-specific proteases (SENPs) using a Caspase-3 Selectivity assay. [Related pubchem assays (depositor defined):AID2540, AID2599, AID434973, AID489001]; format: functional
[9] = molecular target: T5, Sentrin-specific protease 6; test: SAR Analysis of small molecule inhibitors of Sentrin-specific protease 6 (SENP6) using a Luminescent assay. [Related pubchem assays (depositor defined):AID2582, AID2599]; format: functional
[10] = molecular target: T2, Sentrin-specific protease 7; test: inhibition of human SENP7 cleavage activity – biochemical, luminescence, SAR follow-up (AID 504497); format: functional
[11] = molecular target: T3, Sentrin-specific protease 8; test: inhibition of human SENP8 cleavage activity – biochemical, luminescence, SAR follow-up (AID 504501); format: functional
[12] = molecular target: DNA dC->dU-editing enzyme APOBEC-3G (Homo sapiens, UniProt Q9HC16); test: inhibition of APOBEC3G ssDNA deamination – biochemical, fluorescence, single-stranded DNA substrate, SAR follow-up (AID 602136); format: functional; settings: read-out: IC50_Mean
Chain of DNA dC->dU-editing enzyme APOBEC-3G (Q9HC16 whole entry): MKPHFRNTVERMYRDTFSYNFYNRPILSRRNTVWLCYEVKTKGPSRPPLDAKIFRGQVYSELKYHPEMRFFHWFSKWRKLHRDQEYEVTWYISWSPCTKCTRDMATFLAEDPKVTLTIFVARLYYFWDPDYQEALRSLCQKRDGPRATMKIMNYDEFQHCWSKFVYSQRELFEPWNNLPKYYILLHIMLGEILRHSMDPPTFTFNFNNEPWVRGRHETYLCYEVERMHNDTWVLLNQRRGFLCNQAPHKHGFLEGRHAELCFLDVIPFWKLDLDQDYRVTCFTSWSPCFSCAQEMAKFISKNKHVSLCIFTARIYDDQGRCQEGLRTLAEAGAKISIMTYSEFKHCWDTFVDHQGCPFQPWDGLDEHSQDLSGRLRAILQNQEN

[13] = molecular target: DNA dC->dU-editing enzyme APOBEC-3A (Homo sapiens, UniProt P31941); test: SAR analysis of small molecule inhibitors of APOBEC3A DNA Deaminase via a fluorescence-based single-stranded DNA deaminase assay.; format: functional; settings: read-out: IC50_Mean
Chain of DNA dC->dU-editing enzyme APOBEC-3A (P31941 whole entry, the tested form may be a part): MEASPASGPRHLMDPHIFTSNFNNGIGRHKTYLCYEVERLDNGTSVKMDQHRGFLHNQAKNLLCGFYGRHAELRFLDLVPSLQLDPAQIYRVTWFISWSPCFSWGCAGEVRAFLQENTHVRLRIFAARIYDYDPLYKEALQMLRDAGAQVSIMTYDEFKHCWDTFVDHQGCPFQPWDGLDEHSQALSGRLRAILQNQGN

[14] = inhibition of ARNT PAS-B/TACC3 complex formation – biochemical, AlphaScreen, cherry-picked samples, confirmation (AID 651703); format: functional, Homo sapiens;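 further: His-tagged ARNT PAS-B domain paired with GST-TACC3 E629A dimer coactivator fragment; potency of inhibitors that break up the complex and lower AlphaScreen signal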
[15] = molecular target: Aryl hydrocarbon receptor (Homo sapiens, UniProt P35869); settings: Potency;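 further: confirmatory quantitative high-throughput screen measuring activation of the AhR signaling pathway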
Chain of Aryl hydrocarbon receptor (P35869 whole entry): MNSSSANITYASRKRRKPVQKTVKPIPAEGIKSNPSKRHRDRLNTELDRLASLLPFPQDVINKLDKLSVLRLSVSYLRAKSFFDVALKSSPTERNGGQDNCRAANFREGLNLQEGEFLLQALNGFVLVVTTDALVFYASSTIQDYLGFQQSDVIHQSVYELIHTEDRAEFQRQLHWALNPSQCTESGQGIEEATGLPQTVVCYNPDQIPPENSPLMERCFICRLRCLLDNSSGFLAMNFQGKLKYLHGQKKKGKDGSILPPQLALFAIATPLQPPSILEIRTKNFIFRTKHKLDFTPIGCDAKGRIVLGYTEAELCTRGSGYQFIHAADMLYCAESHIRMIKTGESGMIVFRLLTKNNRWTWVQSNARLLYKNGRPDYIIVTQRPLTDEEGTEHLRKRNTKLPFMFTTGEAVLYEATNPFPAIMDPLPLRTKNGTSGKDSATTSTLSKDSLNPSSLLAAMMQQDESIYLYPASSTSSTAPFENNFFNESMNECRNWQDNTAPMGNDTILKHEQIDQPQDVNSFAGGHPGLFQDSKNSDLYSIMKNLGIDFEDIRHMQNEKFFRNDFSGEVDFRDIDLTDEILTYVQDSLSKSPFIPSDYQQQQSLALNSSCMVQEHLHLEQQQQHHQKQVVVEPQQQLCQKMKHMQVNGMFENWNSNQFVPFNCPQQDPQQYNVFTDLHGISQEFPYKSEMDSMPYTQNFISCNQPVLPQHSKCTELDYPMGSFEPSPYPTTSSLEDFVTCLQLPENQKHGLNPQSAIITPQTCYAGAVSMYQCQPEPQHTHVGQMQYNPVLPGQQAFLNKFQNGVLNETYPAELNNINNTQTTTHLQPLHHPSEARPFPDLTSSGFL

T1 sequence (P10145 whole entry): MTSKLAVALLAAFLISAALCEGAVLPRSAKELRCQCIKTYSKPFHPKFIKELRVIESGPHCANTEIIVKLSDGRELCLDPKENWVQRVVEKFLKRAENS

C=CCn1c(Oc2ccccc2F)nc2c1c(=O)n(C)c(=O)n2C
IC50 (Interleukin-8 [1]): 51.1 µM (inactive)
IC50 (Interleukin-8 [2]): > 79 µM (inactive)

O=C(O)CN1C(=O)/C(=C\c2cc(Br)ccc2OCc2ccc([N+](=O)[O-])cc2)SC1=S
IC50 (Genome polyprotein): 30.3 µM (active)
AC50 [3]: 11.7 µM (active)

COc1cccc(-n2nnc3c(N4CCN(C(=O)C(=O)c5c(C)[nH]c6ccccc56)CC4)ncnc32)c1
IC50 [4]: > 99 µM (inactive)
IC50 [5]: > 99 µM (inactive)
IC50 (Caspase-3 [6]): > 99 µM (inactive)
IC50 [7]: > 99 µM (inactive)

CCCCc1ccc2nc(NC(=O)c3ccc(Br)o3)sc2c1
IC50 (Caspase-3 [8]): 11 µM (active)
IC50 [4]: 8.4 µM (active)
IC50 [5]: 5.7 µM (active)
IC50 (Caspase-3 [6]): 5.94 µM (active)
IC50 [9]: > 99 µM (inactive)
IC50 [7]: 6.66 µM (active)
IC50 [10]: 3.8 µM (active)
IC50 [11]: > 99 µM (inactive)

COc1ccc(-c2nnc(SCc3nc4ccsc4c(=O)[nH]3)[nH]2)cc1
IC50 [12]: 66.4 µM (inactive)
IC50 [13]: > 99 µM (inactive)

C/C(=N\NC(=O)c1ccncc1)C12CC3CC(CC(C3)C1)C2
AC50 [14]: 88.3 µM (active)

CC(C)OC(=O)Nc1cccc(Cl)c1 [CHLORPROPHAM]
AC50 [15]: 63.1 µM (inconclusive)
